Measurements: patent US9513294B2, “Megastokes amino-triazolyl-BODIPY compounds and applications to live neuron staining and human serum albumin FA1 drug site probing” (National University of Singapore, priority 2012, dated 2016)

How the values were obtained:
[1] = Absorbance and fluorescence emission spectra (SpectraMax M2); type: physicochemical
Method: BDC-8 (Blue): absorbance λmax=473 nm, emission λmax=585 nm; MK101-8 (Green): absorbance λmax=474 nm, emission λmax=563 nm; MKHA374-48 (Yellow): absorbance λmax=468 nm, λem=557 nm. The corresponding spectra of a reported BODIPY (BD-27; Red) are also included for comparison: absorbance λmax=551 nm, emission λmax=568 nm. The structures of BDC-8, MK101-8, MKHA374-48 and BD-27 are also depicted.
(§1) ^1H-NMR, ^19F-NMR and ^13C-NMR spectra were recorded on Bruker ACF300 (300 MHz), DPX300 (300 MHz) and AMX500 (500 MHz) spectrometers. High resolution mass spectra (ESI) were obtained on a Finnigan/MAT 95XL-T spectrometer. Spectroscopic and quantum yield data were measured on a SpectraMax M2 spectrophotometer (Molecular Devices). Data analysis was performed using GraphPrism 5.0. Analytical characterization was performed on a HPLC-MS (Agilent-1200 series) with a DAD detector and a single quadrupole mass spectrometer (6130 series) with an ESI probe. Analytical HPLC method: eluents, A: H2O (0.1% HCOOH), B: CH3CN (0.1% HCOOH), gradient 5% B to 95% B (10 min). Reverse-phase Phenomenex C18 Luna column (4.6×50 mm^2, 3.5 […]), flow rate: 1 mL/min.

[2] = Quantum yield measurements versus Acridine Yellow in EtOH; type: physicochemical; details: excitation 460 nm
Method: as §1
Quantum yields were calculated by measuring the integrated emission area of the fluorescent spectra and comparing to the area measured for Acridine Yellow in EtOH when excited at 460 nm (Φfluorescence^AcridineYellow=0.47). Quantum yields for the amino-triazolyl-BODIPYs were calculated using the equation below, where F represents the area of fluorescent emission, η is the refractive index of the solvent, and Abs is absorbance at the excitation wavelength selected for standards and samples. Emission was integrated between 510 and 700 nm.

CCCCCC(O)c1cn(-c2ccc3n2[B-](F)(F)[N+]2=C(N4CCCCC4)C=CC2=C3c2ccc(N)cc2)nn1 (stereo not drawn) [BDC-69]
λmax Absorp. ([1]; BDC library, Table 2): 476 nm
λmax Emission ([1]; BDC library, Table 2): 586 nm
φ (quantum yield) ([2]; BDC library, Table 2): 0.13%

Nc1ccc(C2=C3C=CC(N4CCCCC4)=[N+]3[B-](F)(F)n3c2ccc3-n2cc(CO)nn2)cc1 [BDC-70]
λmax Absorp. ([1]; BDC library, Table 2): 474 nm
λmax Emission ([1]; BDC library, Table 2): 586 nm
φ (quantum yield) ([2]; BDC library, Table 2): 0.13%

CC(=O)Nc1ccc(C2=C3C=CC(N4CCCCC4)=[N+]3[B-](F)(F)n3c2ccc3-n2cc(C(C)(C)C)nn2)cc1 [BDCAC-1]
λmax Absorp. ([1]; BDCAC library, Table 3): 469 nm
λmax Emission ([1]; BDCAC library, Table 3): 580 nm
φ (quantum yield) ([2]; BDCAC library, Table 3): 1.5%

CC(=O)Nc1ccc(C2=C3C=CC(N4CCCCC4)=[N+]3[B-](F)(F)n3c2ccc3-n2cc(CN(C)C)nn2)cc1 [BDCAC-2]
λmax Absorp. ([1]; BDCAC library, Table 3): 466 nm
λmax Emission ([1]; BDCAC library, Table 3): 591 nm
φ (quantum yield) ([2]; BDCAC library, Table 3): 0.8%

CCCC(C)c1cn(-c2ccc3n2[B-](F)(F)[N+]2=C(N4CCCCC4)C=CC2=C3c2ccc(NC(C)=O)cc2)nn1 (stereo not drawn) [BDCAC-3]
λmax Absorp. ([1]; BDCAC library, Table 3): 467 nm
λmax Emission ([1]; BDCAC library, Table 3): 585 nm
φ (quantum yield) ([2]; BDCAC library, Table 3): 1.5%

CC(=O)Nc1ccc(C2=C3C=CC(N4CCCCC4)=[N+]3[B-](F)(F)n3c2ccc3-n2cc(C3CC3)nn2)cc1 [BDCAC-4]
λmax Absorp. ([1]; BDCAC library, Table 3): 467 nm
λmax Emission ([1]; BDCAC library, Table 3): 578 nm
φ (quantum yield) ([2]; BDCAC library, Table 3): 1.5%

CC(=O)Nc1ccc(C2=C3C=CC(N4CCCCC4)=[N+]3[B-](F)(F)n3c2ccc3-n2cc(C3CCCC3)nn2)cc1 [BDCAC-5]
λmax Absorp. ([1]; BDCAC library, Table 3): 469 nm
λmax Emission ([1]; BDCAC library, Table 3): 588 nm
φ (quantum yield) ([2]; BDCAC library, Table 3): 1.3%

CC(=O)Nc1ccc(C2=C3C=CC(N4CCCCC4)=[N+]3[B-](F)(F)n3c2ccc3-n2cc(C3CCCCC3)nn2)cc1 [BDCAC-6]
λmax Absorp. ([1]; BDCAC library, Table 3): 467 nm
λmax Emission ([1]; BDCAC library, Table 3): 560 nm
φ (quantum yield) ([2]; BDCAC library, Table 3): 2.4%

CC(=O)Nc1ccc(C2=C3C=CC(N4CCCCC4)=[N+]3[B-](F)(F)n3c2ccc3-n2cc(CC3CCCC3)nn2)cc1 [BDCAC-7]
λmax Absorp. ([1]; BDCAC library, Table 3): 467 nm
λmax Emission ([1]; BDCAC library, Table 3): 585 nm
φ (quantum yield) ([2]; BDCAC library, Table 3): 1.3%

CC(=O)Nc1ccc(C2=C3C=CC(N4CCCCC4)=[N+]3[B-](F)(F)n3c2ccc3-n2cc(CC3CCCCC3)nn2)cc1 [BDCAC-8]
λmax Absorp. ([1]; BDCAC library, Table 3): 468 nm
λmax Emission ([1]; BDCAC library, Table 3): 585 nm
φ (quantum yield) ([2]; BDCAC library, Table 3): 0.9%

CC(=O)Nc1ccc(C2=C3C=CC(N4CCCCC4)=[N+]3[B-](F)(F)n3c2ccc3-n2cc(-c3ccccc3)nn2)cc1 [BDCAC-9]
λmax Absorp. ([1]; BDCAC library, Table 3): 465 nm
λmax Emission ([1]; BDCAC library, Table 3): 579 nm
φ (quantum yield) ([2]; BDCAC library, Table 3): 1.1%

CC(=O)Nc1ccc(C2=C3C=CC(N4CCCCC4)=[N+]3[B-](F)(F)n3c2ccc3-n2cc(-c3ccc(C)cc3)nn2)cc1 [BDCAC-10]
λmax Absorp. ([1]; BDCAC library, Table 3): 464 nm
λmax Emission ([1]; BDCAC library, Table 3): 556 nm
φ (quantum yield) ([2]; BDCAC library, Table 3): 2.4%

CC(=O)Nc1ccc(C2=C3C=CC(N4CCCCC4)=[N+]3[B-](F)(F)n3c2ccc3-n2cc(-c3ccc(C(C)(C)C)cc3)nn2)cc1 [BDCAC-11]
λmax Absorp. ([1]; BDCAC library, Table 3): 465 nm
λmax Emission ([1]; BDCAC library, Table 3): 582 nm
φ (quantum yield) ([2]; BDCAC library, Table 3): 1.4%

CCCCc1ccc(-c2cn(-c3ccc4n3[B-](F)(F)[N+]3=C(N5CCCCC5)C=CC3=C4c3ccc(NC(C)=O)cc3)nn2)cc1 [BDCAC-12]
λmax Absorp. ([1]; BDCAC library, Table 3): 464 nm
λmax Emission ([1]; BDCAC library, Table 3): 558 nm
φ (quantum yield) ([2]; BDCAC library, Table 3): 1.6%

CC(=O)Nc1ccc(C2=C3C=CC(N4CCCCC4)=[N+]3[B-](F)(F)n3c2ccc3-n2cc(-c3ccc(N(C)C)cc3)nn2)cc1 [BDCAC-13]
λmax Absorp. ([1]; BDCAC library, Table 3): 467 nm
λmax Emission ([1]; BDCAC library, Table 3): 619 nm
φ (quantum yield) ([2]; BDCAC library, Table 3): 0.1%

COc1cc(OC)cc(-c2cn(-c3ccc4n3[B-](F)(F)[N+]3=C(N5CCCCC5)C=CC3=C4c3ccc(NC(C)=O)cc3)nn2)c1 [BDCAC-14]
λmax Absorp. ([1]; BDCAC library, Table 3): 464 nm
λmax Emission ([1]; BDCAC library, Table 3): 588 nm
φ (quantum yield) ([2]; BDCAC library, Table 3): 1.0%
